{"source": "patent US9670223B2", "about": "“Compounds with super-aspirin effects” (SOLVOTRIN THERAPEUTICS LTD., priority 2011, dated 2017)", "key": {"[1]": {"tested_on": "TxB2", "experiment": "TxB2 suppression after single oral gavage dose", "type": "in vivo, cynomolgus monkey", "settings": "Phase 2A, single oral gavage, ST0702 9.6 mg/kg, aspirin 4.2 mg/kg, 1 and 24 hours post dosing"}, "[2]": {"tested_on": "platelet rich plasma (PRP)", "experiment": "Collagen-induced platelet aggregation in platelet rich plasma (light aggregometry)", "type": "cell-based, human", "protocol": "PRP and WP (2.5×10^8 platelets ml^−1) were prepared from blood. Briefly 36 ml whole blood was collected into 4 ml of 3.15% sodium citrate; this was centrifuged at 250 ¥g for 20 min (with gentle acceleration and deceleration). At this point PRP, which had separated from white blood cells and red blood cells, was gently removed. When WP were required this PRP was centrifuged at 700 g for 10 min (with gentle acceleration and deceleration) in the presence of prostacyclin. The platelet-poor plasma (PPP) was removed and the platelet pellet was washed three times with Tyrode's buffer, before being re-suspended in Tyrode's buffer to a concentration of 2.5 ¥108 platelets/ml.\nPlatelet aggregation was measured by light aggregometry. […] Aggregation was initiated by the addition of agonists, and monitored by Aggro-Link software for at least 6 min.\nTo study the aggregatory potency of ADP, the concentration-response (0.3-10 μM) curves were generated. Collagen at different concentrations (2-5 μg/ml) was also used to induce platelet aggregation. Submaximal concentrations of agonists, i.e. the concentrations that gave approximately 95% of the maximal aggregation were used to study the effects of inhibitors of aggregation. Aspirin and aspirin prodrugs was incubated for various intervals prior to the addition of aggregating agents.\nEserine (in DMSO, 10 μM, giving a final concentration≦0.25% DMSO, which pilot studies had determined not to affect platelet aggregation) was preincubated with PRP or WP for 5 min in the aggregometer with stirring at 900 r.p.m. before the addition of test compounds (ST0701-05), which were incubated in PRP or WP for a further 10 min prior to the addition of an agonist (10 μM ADP or 5 μg/ml Collagen) to induce platelet aggregation."}, "[3]": {"tested_on": "MMP-2", "experiment": "MMP-2 release during 59M-induced TCIPA by zymography", "type": "cell-based, human", "settings": "300 uM, P>0.05", "protocol": "Sample collection was carried out as previously described (Jurasz et al., 2001; Medina et al., 2006). Briefly, platelets at a concentration of 2.5×10^8/ml were placed into lumi-aggregometer and tumor cells (59M) were added at 1×10^3/ml. When platelet aggregation reached 50% maximal light transmission the reaction was terminated and samples were collected. The samples were then centrifuged at 900×g at room temperature for 10 min. After centrifugation, platelet releasates were collected and stored at −80 C until assayed for the presence of MMP activity by zymography.\nGelatin zymography was used to detect the activity of MMP-2 in the releasates as previously described (Alonso-Escolano et al., 2004; Jurasz et al., 2001; Medina et al., 2006). Briefly, samples were subjected to 10% sodium dodecyl sulfate-polyacrylamide gel electrophoresis (SDS-PAGE) with copolymerized gelatin (0.2%; Sigma Chemical Co, St. Louis, Mo.) incorporated as a substrate for gelatinolytic proteases. […] The gelatinolytic activities were detected as transparent bands against the background of Coomassie blue-stained gelatin. The intensities of the separate bands were analyzed and quantified using ChemiDoc XRS System (Bio-Rad, Hercules, Calif., U.S.A.). The gelatinolytic activity of each band was expressed as arbitrary units of density/mg protein."}, "[4]": {"tested_on": "HT1080 cells", "experiment": "Tumour cell-induced platelet aggregation (TCIPA), static conditions, HT1080", "type": "cell-based, human", "settings": "static, WP, 300 and 500 μM, HT1080 2×10^5/ml", "protocol": "Three human tumor cell lines, 59M ovarian adenocarcinoma, Caco-2 colon adenocarcinoma and HT1080 fibrocarcinoma cells, were obtained from the European Cell Culture Collection. Cell lines were cultured as monolayers in 75 ml culture flasks at 37° C. in a humidified atmosphere with 5% CO2. 59M cells and HT1080 were cultured in Dulbecco's […] (DMEM) supplemented with 10% fetal bovine serum (FBS) and gentamycin (0.05 mg/ml), penicillin (0.06 mg/ml), and streptomycin (0.01 mg/ml). Caco-2 cell line was cultured in Minimum Essential Medium (MEM) supplemented with 20% FBS and the same antibiotics as above. The cells were supplied with fresh medium and subcultured three times each week.\nWashed platelet suspensions (2.5×10^11 platelets 1^−1) were prepared from blood an mixed with the anticoagulant sodium citrate (0.315% final concentration).\nThe interactions between platelets and tumor cells were measured by light aggregometry (Alonso-Escolano et al., 2004; Jurasz et al., 2001b; Radomski et al., 1991). Briefly, washed platelet samples (2.5×10^8/ml) were placed in an eight channel PAP 8 aggregometer (BIO/DATA CORPORATION, Horsham, Pa., U.S.A.) and incubated for 10 min at 37° C., with stirring at 900 r.p.m., prior to the addition of aggregating agents. […] TCIPA was initiated by the addition of cancer cells, and monitored by Aggro-Link software for at least 30 min. For experiments using inhibitors, aggregation was initiated after 10 min preincubation with these compounds.\nTo study the ability of the aspirin pro-drugs to inhibit TCIPA in WP cancer cell lines such as HT1080 cells (2×10^5/ml), CaCo2 cells (1.5×10^3/ml) or 59M cells (1×10^3/ml) were used in the presence or absence of aspirin nicotinate (ST0702), ISAS, orthonitrate and metanitrate at 300 and 500 μM. Platelet aggregation was initiated in washed platelets (WP) using HT1080 cells (2×10^5/ml), CaCo2 cells (1.5×10^3/ml) or 59M cells (1×10^3/ml). In addition, regular aspirin (300 and 500 uM) was used as control. Results were expressed in percent changes in maximal light transmission, with 100% representing light transmission of platelet medium alone. ST0702 is hydrolyzed by plasma esterases along two pathways liberating both aspirin and 5-nicotinate salicylate (ST0702 salicylate)(metabolite). The latter is further processed to isosorbide-5-nicotinate and eventually to nicotinic acid. The orthonitrate and metanitrate compounds liberate aspirin and nitric oxide (NO). ISAS meanwhile is hydrolysed to aspirin and salicylic acid. Aspirin (300 and 500 μM) was used in control experiments. Results were expressed in percent changes in maximal light transmission, with 100% representing light transmission of platelet medium alone. Further experiments were performed with ST0702 salicylate (500 μM)."}, "[5]": {"settings": "200 μM in PRP, collagen 5 μg/ml"}}, "data": [{"smiles": "CC(=O)Oc1ccccc1C(=O)O", "note": "[Aspirin]", "values": [{"measurement": "TxB2 suppression (TxB2 levels as percentage of baseline), in words", "setting": "[1]", "value": "effective"}, {"measurement": "effect of eserine on inhibition of collagen-induced aggregation in PRP", "setting": "[2]; compounds 300 μM, physostigmine (eserine) 10 μM", "value": "did not exert significant effects"}, {"measurement": "release of pro-MMP-2 during platelet aggregation induced by 59M cells", "setting": "[3]", "value": "failed to prevent"}, {"measurement": "inhibition of TCIPA induced by HT1080", "setting": "[4]", "value": "did not exert any significant effect"}, {"measurement": "inhibition of TCIPA induced by HT1080", "setting": "[4]; listed as aspirin", "value": "did not exert a significant effect"}]}, {"smiles": "CC(=O)Oc1ccccc1C(=O)O[C@H]1CO[C@H]2[C@@H]1OC[C@H]2OC(=O)c1cccnc1", "note": "[ST0702, isosorbide-2-aspirinate-5-nicotinate]", "values": [{"measurement": "TxB2 suppression (TxB2 levels as percentage of baseline), in words", "setting": "[1]", "value": "effective"}, {"measurement": "inhibition of aggregation following 0-5 min preincubation", "setting": "[2]; [5]", "value": "No significant inhibition"}, {"measurement": "preincubation time at which inhibition is maximal", "setting": "[2]; [5]", "value": "15 to 20", "unit": "min"}, {"measurement": "inhibition of TCIPA induced by HT1080", "setting": "[4]", "value": "consistently inhibited TCIPA"}]}]}
